Laboratory results: patent US20100204508A1, “DENDRITIC COMPOUND AND USE THEREOF” (Industrial Technology Research Institute, priority 2004, published 2010)

Columns and labels:
[1] = magnetizing relaxation rate via NMR (R1, R2); type: physicochemical; conditions: B0 = 0.47 T, vertical relative relaxation
[2] = B0 = 1.0T; cited from earlier work

R1(20 MHz) [1]: 6.14
Structure (SMILES): CNC[C@H](O)[C@@H](O)[C@H](O)[C@H](O)CO.CNC[C@H](O)[C@@H](O)[C@H](O)[C@H](O)CO.O=C([O-])CN(CCN(CC(=O)[O-])CC(=O)O)CCN(CC(=O)[O-])CC(=O)O.[Gd+3] [Magnevist ™]
R1 (Literature) [2]: R1 = 3.4
